pIC50: −log10 of the molar value.
Assays:
[1] = target: full-length human His-tagged BTK (Homo sapiens (Human), UniProt Q06187); assay: BTK Assay (HTRF, Cisbio KinEASE-TK); assay type: biochemical; details: 6 nM BTK, 30 uM ATP, 15 min preincubation
Method: An HTRF assay (Cisbio KinEASE-TK cat #62TKOPEC) was performed to quantitate the ability of test compounds to inhibit BTK mediated phosphorylation of substrate. Assays were assembled in 384 well plates where 6 nM of full-length human His-tagged BTK (Life Technologies cat # PV3587) and test compound at varying concentrations were preincubated for 15 minutes at 28° C. Then, 1 uM of TK substrate-biotin and 30 uM ATP were added and incubated for an additional 30 minutes at 28° C.

[2] = target: BTK (Homo sapiens (Human), UniProt Q06187); assay: Inhibition of B-cell activation measured by CD69 expression in primary CD19+ cells; assay type: cell-based; details: primary CD19+ cells stimulated with anti-human IgD, CD69 expression by flow cytometry
BTK, sequence (Q06187 whole entry): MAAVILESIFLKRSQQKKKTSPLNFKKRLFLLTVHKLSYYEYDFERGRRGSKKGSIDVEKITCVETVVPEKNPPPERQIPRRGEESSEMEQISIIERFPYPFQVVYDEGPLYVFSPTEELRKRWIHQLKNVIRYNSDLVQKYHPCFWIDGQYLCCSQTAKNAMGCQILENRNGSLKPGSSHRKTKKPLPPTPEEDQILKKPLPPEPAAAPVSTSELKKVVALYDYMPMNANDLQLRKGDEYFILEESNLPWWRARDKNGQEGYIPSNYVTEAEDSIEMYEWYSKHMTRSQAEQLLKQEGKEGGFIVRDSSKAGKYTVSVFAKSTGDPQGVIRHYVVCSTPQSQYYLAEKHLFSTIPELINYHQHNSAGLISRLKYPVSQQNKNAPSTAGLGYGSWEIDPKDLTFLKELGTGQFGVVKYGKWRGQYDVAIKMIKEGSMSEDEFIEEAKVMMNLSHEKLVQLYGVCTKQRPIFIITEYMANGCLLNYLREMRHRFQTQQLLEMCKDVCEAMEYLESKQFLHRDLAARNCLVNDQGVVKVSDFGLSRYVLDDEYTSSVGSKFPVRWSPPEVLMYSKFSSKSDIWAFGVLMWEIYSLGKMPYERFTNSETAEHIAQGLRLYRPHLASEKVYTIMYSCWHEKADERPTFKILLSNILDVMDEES
Method: Cells were collected and plated in a 96 flat bottom plate at a concentration of 2×10^5/well in RPMI media containing 10% FBS, rested for 1 hour at 37° c. Cells were treated with inhibitor in duplicates or vehicle control in 1% DMSO final concentration for 1 hour at 37° c., 5% CO2. […] B cells were analyzed by flow cytometry using a BD LSRII or BD FACsCanto Flow Cytometer. Viable cells were gated, and CD69 percentage was determined using FlowJo software.

[3] = target: EGFR (Homo sapiens (Human), UniProt P00533); assay: Inhibition of EGFR autophosphorylation in A431 human epithelial cells stimulated with EGF; assay type: cell-based; details: EGF 60 ng/mL, phospho EGFR, read-out: A431 p-EGFR IC50
EGFR, sequence (P00533 25-1210): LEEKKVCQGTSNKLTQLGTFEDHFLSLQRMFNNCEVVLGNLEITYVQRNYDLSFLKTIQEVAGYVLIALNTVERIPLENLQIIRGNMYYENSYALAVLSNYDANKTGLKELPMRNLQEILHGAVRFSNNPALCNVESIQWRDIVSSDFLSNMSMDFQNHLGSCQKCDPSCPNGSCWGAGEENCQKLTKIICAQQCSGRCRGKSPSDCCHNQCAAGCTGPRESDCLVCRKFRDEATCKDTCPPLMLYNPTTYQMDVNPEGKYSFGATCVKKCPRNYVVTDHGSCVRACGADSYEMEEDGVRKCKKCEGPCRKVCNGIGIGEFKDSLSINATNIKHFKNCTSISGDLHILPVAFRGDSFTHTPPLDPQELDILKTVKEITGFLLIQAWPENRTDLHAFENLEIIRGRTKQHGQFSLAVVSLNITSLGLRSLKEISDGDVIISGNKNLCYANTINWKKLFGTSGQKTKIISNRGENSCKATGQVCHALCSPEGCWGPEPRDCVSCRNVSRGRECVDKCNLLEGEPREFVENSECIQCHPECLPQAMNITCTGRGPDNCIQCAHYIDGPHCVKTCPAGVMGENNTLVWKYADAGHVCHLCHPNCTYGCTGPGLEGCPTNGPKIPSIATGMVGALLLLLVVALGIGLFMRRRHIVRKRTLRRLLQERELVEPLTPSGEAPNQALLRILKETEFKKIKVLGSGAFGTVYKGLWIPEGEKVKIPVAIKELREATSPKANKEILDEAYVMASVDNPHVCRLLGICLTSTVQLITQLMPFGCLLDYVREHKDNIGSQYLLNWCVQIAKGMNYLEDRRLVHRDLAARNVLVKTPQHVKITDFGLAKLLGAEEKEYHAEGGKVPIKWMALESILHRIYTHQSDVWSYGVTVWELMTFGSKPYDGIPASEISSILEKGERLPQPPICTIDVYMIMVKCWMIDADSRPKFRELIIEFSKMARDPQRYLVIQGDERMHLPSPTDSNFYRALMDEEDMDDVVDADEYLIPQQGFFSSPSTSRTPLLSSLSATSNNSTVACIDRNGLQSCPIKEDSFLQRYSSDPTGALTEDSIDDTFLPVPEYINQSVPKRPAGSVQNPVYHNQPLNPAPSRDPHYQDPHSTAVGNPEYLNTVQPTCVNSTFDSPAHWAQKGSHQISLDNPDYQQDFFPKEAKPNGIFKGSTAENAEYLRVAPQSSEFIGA
Description: The compounds described herein show a range of selectivities against EGFR as measured in cellular assays (BTK activity measured by CD69 expression in primary CD19^+ cells; EGFR activity measured by EGFR phosphorylation in A431 cells).
Inhibition of EGFR Autophosphorylation in A431 Human Epithelial Cells Stimulated with Epithelial Growth Factor
A431 cells (ATCC # CRL-1555 FZ) are thawed and plated in DMEM containing 10% FBS in a 384-well tissue culture treated plate at 15,000 cells/well. After incubating for 24 hours at 37° C., 5% CO2, the cells are treated with test compound (1% DMSO final concentration) and incubated for 16 hours at 37° C., 5% CO2. EGF (Millipore, 01-107) is added at a final concentration of 60 ng/mL and incubated for 10 minutes. The medium is removed, the cells are lysed, and phospho EGFR is measured (Meso Scale Diagnostics, N31CB-1).

full-length human His-tagged BTK, sequence (Q06187 whole entry): as the sequence (Q06187 whole entry) above

Compound	pIC50 [1]	pIC50 [2]	pIC50 [3]
CC#CC(=O)N1CC[C@]2(C1)C[C@H](n1nc(-c3ccc(OC)cc3Cl)c(C(N)=O)c1N)C2 [Example 158]	8.20	7.24	< 5.00
CC#CC(=O)N1CC[C@]2(C1)C[C@H](n1nc(-c3ccc(OCC(F)(F)F)cc3)c(C(N)=O)c1N)C2 [Example 164]	9.30	8.82	6.38
C=CC(=O)N1CC2(CC(n3cc(C(N)=O)c(-c4ccc(Oc5ccccc5)cc4)n3)C2)C1 [Example 28]	8.46	8.05	5.33
C=CC(=O)N1CCC[C@@H](c2nc(-c3ccc(Oc4ccccc4)cc3)c(C(N)=O)[nH]2)C1 [Example 46]	8.92	8.70	6.92
C=CC(=O)N1CC[C@]2(C1)C[C@H](n1cc(C(N)=O)c(-c3ccc(Oc4ccccc4)cc3)n1)C2 [Example 40]	8.31	7.70	< 5.00
C=CC(=O)N1CC[C@]2(C1)C[C@H](n1nc(-c3ccc(OCCC)c(F)c3)c(C(N)=O)c1N)C2 [Example 165]	7.82	8.00	5.43
CC#CC(=O)N1CC[C@]2(C1)C[C@@H](c1nc(-c3ccc(Oc4ccccc4)cc3)c(C(N)=O)s1)C2 [Example 78]	8.68	8.60	5.74

More lines, now with the values ahead:

pIC50 [1]	pIC50 [2]	pIC50 [3]	Compound
8.46	8.11	5.19	CC#CC(=O)N1CC2(CC(n3nc(-c4ccc(OCC(F)(F)F)cc4)c(C(N)=O)c3N)C2)C1 [Example 115]
8.48	8.09	5.38	CC#CC(=O)N1CC2(CC(n3nc(-c4ccc(OCCC)cc4)c(C(N)=O)c3N)C2)C1 [Example 107]
8.85	8.35	5.92	CC#CC(=O)N1CC[C@]2(C1)C[C@H](n1nc(-c3ccc(OC(F)(F)F)cc3)c(C(N)=O)c1N)C2 [Example 160]
9.10	9.05	6.10	C=CC(=O)N1CC[C@]2(C1)C[C@@H](n1nc(-c3ccc(Oc4ccccc4)cc3)c(C(N)=O)c1N)C2 [Example 81]
9.14	9.00	6.37	CC#CC(=O)N1CC2(CC(n3nc(-c4ccc(Oc5ccccc5)cc4)c(C(N)=O)c3N)C2)C1 [Example 41]
8.17	7.39	5.24	C=CC(=O)N1CC2(CC(n3nc(-c4ccc(OC5CC5)cc4)c(C(N)=O)c3N)C2)C1 [Example 112]
7.89	7.52	< 5.00	CC#CC(=O)N1CC2(CC(n3nc(-c4ccc(OC(C)C)cc4)c(C(N)=O)c3N)C2)C1 [Example 106]
8.32	7.82	5.28	C=CC(=O)N1CC[C@]2(C1)C[C@H](n1nc(-c3ccc(OCC(F)(F)F)cc3)c(C(N)=O)c1N)C2 [Example 163]

— patent US10138229B2, “Heteroaromatic compounds as BTK inhibitors” (Boehringer Ingelheim International GmbH, priority 2012, dated 2018)
